Source: patent US9302999B2, “Substituted triazoles as herbicides” (E. I. DU PONT DE NEMOURS AND COMPANY, priority 2012, dated 2016)
Like-named read-outs stand apart in the source and are kept apart here.

What was measured:
Format in all cases: in vivo
[1] = system: barnyardgrass (Echinochloa crus-galli); assay: Test A pre-/postemergence: barnyardgrass; conditions: Echinochloa crus-galli, 240 h; for pest or weed control at 125 g/ha: 125 g ai/ha; for pest or weed control at 500 g/ha: 500 g ai/ha
Outline: (§1)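 Seeds were sown in loam/sand blend and sprayed preemergence (directed soil spray) and, simultaneously, postemergence at 2–10 cm, one- to two-leaf stage, using compounds in non-phytotoxic solvent with surfactant. After ~10 days in greenhouse, injury was rated visually versus untreated controls, 0 (no effect) to 100 (complete control).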

[2] = system: morningglory (Ipomoea spp.); assay: Test A pre-/postemergence: morningglory; conditions: Ipomoea, 240 h; for pest or weed control at 125 g/ha: 125 g ai/ha; for pest or weed control at 500 g/ha: 500 g ai/ha
Outline: as §1

[3] = system: wheat (Triticum aestivum); assay: Test A pre-/postemergence: wheat; conditions: Triticum aestivum, 240 h; for plant injury at 125 g/ha: 125 g ai/ha; for plant injury at 500 g/ha: 500 g ai/ha
Outline: as §1

[4] = system: pigweed (Amaranthus retroflexus); assay: Test A pre-/postemergence: pigweed; conditions: Amaranthus retroflexus, 240 h; for pest or weed control at 125 g/ha: 125 g ai/ha; for pest or weed control at 500 g/ha: 500 g ai/ha
Outline: as §1

[5] = system: velvetleaf (Abutilon theophrasti); assay: Test A pre-/postemergence: velvetleaf; conditions: Abutilon theophrasti, 240 h; for pest or weed control at 125 g/ha: 125 g ai/ha; for pest or weed control at 500 g/ha: 500 g ai/ha
Outline: as §1

[6] = post-emergence, Postemergence, 0 to 100 scale, 0 is no effect, 100 is complete control, read-out: Barnyardgrass plant response rating
[7] = post-emergence, Postemergence, visual rating on 0 to 100 scale (0 no effect, 100 complete control), approximately ten days, read-out: Barnyardgrass plant response rating
[8] = pre-emergence, Preemergence, 0 to 100 scale (0 no effect, 100 complete control), read-out: Plant response rating, Barnyardgrass
[9] = post-emergence, Postemergence, 0 to 100 scale, 0 is no effect, 100 is complete control, read-out: Morningglory plant response rating
[10] = post-emergence, Postemergence, visual rating on 0 to 100 scale (0 no effect, 100 complete control), approximately ten days, read-out: Morningglory plant response rating
[11] = pre-emergence, Preemergence, 0 to 100 scale (0 no effect, 100 complete control), read-out: Plant response rating, Morningglory
[12] = post-emergence, Postemergence, 0 to 100 scale, 0 is no effect, 100 is complete control, read-out: Wheat plant response rating
[13] = post-emergence, Postemergence, visual rating on 0 to 100 scale (0 no effect, 100 complete control), approximately ten days, read-out: Wheat plant response rating
[14] = pre-emergence, Preemergence, 0 to 100 scale (0 no effect, 100 complete control), read-out: Plant response rating, Wheat
[15] = post-emergence, Postemergence, 0 to 100 scale, 0 is no effect, 100 is complete control, read-out: Pigweed plant response rating
[16] = post-emergence, Postemergence, visual rating on 0 to 100 scale (0 no effect, 100 complete control), approximately ten days, read-out: Pigweed plant response rating
[17] = pre-emergence, Preemergence, 0 to 100 scale (0 no effect, 100 complete control), read-out: Plant response rating, Pigweed
[18] = post-emergence, Postemergence, 0 to 100 scale, 0 is no effect, 100 is complete control, read-out: Velvetleaf plant response rating
[19] = post-emergence, Postemergence, visual rating on 0 to 100 scale (0 no effect, 100 complete control), approximately ten days, read-out: Velvetleaf plant response rating
[20] = pre-emergence, Preemergence, 0 to 100 scale (0 no effect, 100 complete control), read-out: Plant response rating, Velvetleaf

SMILES | pest or weed control at 125 g/ha [1, 6] [%] | pest or weed control at 500 g/ha [1, 7] [%] | pest or weed control at 125 g/ha [2, 9] [%] | pest or weed control at 500 g/ha [2, 10] [%] | plant injury at 125 g/ha [3, 12] [%] | plant injury at 500 g/ha [3, 13] [%] | pest or weed control at 125 g/ha [4, 15] [%] | pest or weed control at 500 g/ha [4, 16] [%] | pest or weed control at 125 g/ha [5, 18] [%] | pest or weed control at 500 g/ha [5, 19] [%] | further results
COc1nn(-c2ccc(C(F)(F)F)cc2)nc1Cn1ccc(C(F)(F)F)n1 [Compound 17, 4-methoxy-2-[4-(trifluoromethyl)phenyl]-5-[[3-(trifluoromethyl)-1H-pyrazol-1-yl]methyl]-2H-1,2,3-triazole] | 30 | 90 | 50 | 90 | 20 | 40 | 90 | 100 | 90 | 100 | pest or weed control at 125 g/ha [1, 8]: 30%; pest or weed control at 500 g/ha ([1]; pre-emergence, Preemergence, 0 to 100 scale, 0 is no effect, 100 is complete control, read-out: Plant response rating, Barnyardgrass): 90%; pest or weed control at 125 g/ha [2, 11]: 0%; pest or weed control at 500 g/ha ([2]; pre-emergence, Preemergence, 0 to 100 scale, 0 is no effect, 100 is complete control, read-out: Plant response rating, Morningglory): 50%; plant injury at 125 g/ha [3, 14]: 0%; plant injury at 500 g/ha ([3]; pre-emergence, Preemergence, 0 to 100 scale, 0 is no effect, 100 is complete control, read-out: Plant response rating, Wheat): 0%; pest or weed control at 125 g/ha [4, 17]: 90%; pest or weed control at 500 g/ha ([4]; pre-emergence, Preemergence, 0 to 100 scale, 0 is no effect, 100 is complete control, read-out: Plant response rating, Pigweed): 100%; pest or weed control at 125 g/ha [5, 20]: 30%; pest or weed control at 500 g/ha ([5]; pre-emergence, Preemergence, 0 to 100 scale, 0 is no effect, 100 is complete control, read-out: Plant response rating, Velvetleaf): 40%
CCc1nn(-c2ccc(C(F)(F)F)cc2)nc1Oc1cccc(OC(F)(F)F)c1 [Compound 125, 4-ethyl-5-[3-(trifluoromethoxy)phenoxy]-2-[4-(trifluoromethyl)phenyl]-2H-1,2,3-triazole] | 0 | 30 | 60 | 100 | 0 | 20 | 90 | 100 | 30 | 70 | pest or weed control at 125 g/ha ([1]; pre-emergence, Preemergence, 0 to 100 scale where 0 is no effect and 100 is complete control, read-out: Plant response rating, Barnyardgrass): 30%; pest or weed control at 500 g/ha [1, 8]: 50%; pest or weed control at 125 g/ha ([2]; pre-emergence, Preemergence, 0 to 100 scale where 0 is no effect and 100 is complete control, read-out: Plant response rating, Morningglory): 0%; pest or weed control at 500 g/ha [2, 11]: 10%; plant injury at 125 g/ha ([3]; pre-emergence, Preemergence, 0 to 100 scale where 0 is no effect and 100 is complete control, read-out: Plant response rating, Wheat): 0%; plant injury at 500 g/ha [3, 14]: 0%; pest or weed control at 125 g/ha ([4]; pre-emergence, Preemergence, 0 to 100 scale where 0 is no effect and 100 is complete control, read-out: Plant response rating, Pigweed): 70%; pest or weed control at 500 g/ha [4, 17]: 90%; pest or weed control at 125 g/ha ([5]; pre-emergence, Preemergence, 0 to 100 scale where 0 is no effect and 100 is complete control, read-out: Plant response rating, Velvetleaf): 0%; pest or weed control at 500 g/ha [5, 20]: 50%
